Here are results for ten compounds from US20200087340A1, “LIF/LIFR ANTAGONIST IN ONCOLOGY AND NONMALIGNANT DISEASES” (Evestra, Inc., priority 2018, published 2020).

Series [1] deals with LIF-overexpressing MCF-7 (MCF-7 LIF) human breast cancer cells. In words: LIF specificity assay, cytotoxicity. Particulars: for Fold Change: cytotoxicity MCF-7 vs. MCF-7 LIF (specificity towards LIF). It is filed as cell-based.
In series [2] the test system is human umbilical vein endothelial cells (HUVEC). Description: Matrigel in vitro HUVECs tube formation assay (angiogenesis). The series is classed as cell-based. As to conditions: 1 μM concentration, all measured time points. As for the experimental part: Matrigel in vitro HUVECs tube formation assay: The tube formation assay was performed using 12-well plate coated with 100 μL Matrigel basement membrane matrix (BD Bioscience) per well and polymerized at 37° C. for 30 min. Human umbilical vascular endothelial cells (HUVECs) suspended in M199 medium containing 2% FBS were plated on the Matrigel at a density of 2×10^5 cells/well. […] After 8 h, the Matrigel-induced morphological changes were photographed and the extent of capillary tube formation was evaluated by measuring the total tube length per field.

Series [3] deals with human endometrial stromal cells (HESC). Description: Decidualization assay, phalloidin staining of actin cytoskeleton. It is filed as cell-based. As for the experimental part: Decidualization studies: The above compounds were investigated originally for the treatment of endometriosis. The compounds were tested in a decidualization assay using human endometrial stromal fibroblast (HESC) cells. In preparation for the possibility of embryonic attachment, the stromal cells in the endometrium undergo extensive waves of proliferation, remodeling, and terminal differentiation that transforms the endometrium into an endocrine gland, called decidua. This transformation is called decidualization and it is under the control by ovarian hormones.
The level of apoptosis increases from the proliferative phase through menstrual cycle and peaks at menses. […] However if the cells are subjected to conditions that induce decidualization, stromal cells will begin to differentiate instead of undergoing apoptosis.
Rationale of this assay is described above in mechanism of action studies section. Briefly, human stromal endometrial cells were plated in the presence and absence of progesterone and allow undergoing decidualization. The cells treated with test compounds of different concentrations and stained for actin cytocketal morphology using phalloidin staining and monitored under fluorescent microscope.

The next series relates to MCF-7 cells. In words: P53 / MDM2 levels in MCF-7 cells. It is filed as cell-based, human.
For a further series, the system named is T47D cells. Description: Soft agar colony formation assay. The series is classed as cell-based, human. As to conditions: 100 nM concentration. As to the method: Colonies of cancer cells formed in soft agar in the presence and absence of the testing compounds is a standard assay to interpret in-vitro tumorigenic potential in the basal layer. Agar was prepared by mixing 1% DNA grade agar melted and cooled to 40° C. with an equal volume of (2×) Dulbecco's Modified Eagle's Medium (DMEM) to obtain 0.5% agar that was dispersed in a 6-well plate and allowed to solidify. A total of 0.6% agar was prepared in RPMI medium and mixed together with T47D cells (0.5×10^6 cells/mL) and immediately plated on the basal layer in the presence or absence of testing compounds. The cultures were incubated at 37° C. in a CO2 incubator for 2 weeks, and colonies were stained with 0.005% crystal violet and observed under a light microscope.

Series [4] deals with Patient derived tumor (melanoma). Description: Immunohistochemistry analysis of treated patient derived tumor. The series is classed as cell-based, human. As to conditions: 10 nM and 1 uM for 5 days. As to the method:
Patient derived tumor (melanoma) was treated with the compounds at 10 nM and 1 uM for 5 days in RPMI medium and harvested on day 6 using established protocol and immunohistochemistry was performed for different antibodies including p53, LIF, MDM2, pSTAT3, Ki67.

Series [5] has as its system various cancer cells lines. Description: Cytotoxicity assays in various cancer cell lines. The series is classed as cell-based.
The next series relates to U87-MU (Glioma cells). Description: Short term (72 h) cytotoxicity assay. It is filed as cell-based. As to conditions: Glioma cell.
Series [6] has as its system unmodified MCF-7 human breast cancer cells. Description: LIF specificity assay, cytotoxicity. The series is classed as cell-based. Particulars: MCF7.
A further series deals with U251 (Glioma). Description: Short term (72 h) cytotoxicity assay. It is filed as cell-based. Particulars: Homo sapiens, U-251; U251, 72 h.
The subject of another series is A549 (Lung cancer). In words: Short term (72 h) cytotoxicity assay. The series is classed as cell-based. Particulars: Homo sapiens, A549, 72 h.
In series [7] the test system is FC 1295 and imPSCc-2 organoids. In words: Pancreatic cancer / stellate cell line derived organoid system. It is filed as cell-based, Murine. As to conditions: as compared to control. As to the method:
Most solid tumors have extensive stroma that not only facilitates the tumor progression but also impedes the delivery of the chemotherapeutic agents. Due to lack of any in-vitro system, presently it is difficult to evaluate any stroma-targeted therapies. Therefore, we developed an organoid system using labeled pancreatic cancer and stellate cell lines. Murine (FC 1295 and […]-2) cell lines cultured in different combinations were grown as an organoid system using matrigel. The organoids, starting day four were treated with either gemcitabine or EC359, a novel mifepristone derived steroidal cytotoxic agent that targets tumor stroma, or both in combination. qRT-PCR analysis of activated stroma signature genes was performed on the mRNA isolated from different treatment groups. H&E, immunohistochemistry, and western blot analysis were performed to further validate our findings. […] Our novel cell line derived organoid model can be utilized for fast, and inexpensive evaluation of stroma-targeted therapies.

For `C#CC(F)(F)[C@]1(O)CCC2C3CCC4=CC(=O)CCC4=C3C(c3ccc(C4CCCCC4)cc3)C[C@@]21C` (stereo partly drawn) [EC360, 17α-(1,1-difluoro-2-propyn-1-yl)-17β-hydroxy-11β-[4-p-(cyclohexyl)phenyl]estra-4,9-dien-3-one], in [1], the “Fold Change” value is listed as 2.
Turning to `C#CC(F)(F)[C@]1(O)CCC2C3CCC4=CC(=O)CCC4=C3C(c3ccc(C(C)=O)cc3)C[C@@]21C` (stereo partly drawn) [EC332, 17α-(1,1-difluoro-2-propyn-1-yl)-17β-hydroxy-11β-[4-p-(acetyl)phenyl]estra-4,9-dien-3-one], in [2], the tube formation result was “complete abrogation of tube formation”. Moreover, in series [3], the “actin cytoskeletal disruption (phalloidin staining)” value is “cytoskeletal disruption”. Also, in the series on MCF-7 cells, the “P53 levels / MDM2” value is “restore P53 levels by inhibiting MDM2”. In addition, the colonies formed entry with T47D cells is “complete inhibition or no colonies were formed”. The “apoptosis, p53, MDM2, LIF mediated STAT3 phosphorylation (immunohistochemistry)” value in [4] was “induce apoptosis and restore p53 by inhibiting MDM2 and LIF mediated STAT3 phosphorylation”. The “cytotoxicity (IC50's) in cytotoxicity assays” value in [5] is “low nanomolar”.
For orientation: melting point means the temperature of the solid-liquid transition. Regarding `C#CC(F)(F)[C@]1(O)CCC2C3CCC4=CC(=O)CCC4=C3C(c3ccc(C(C)(C)C)cc3)C[C@@]21C` (stereo partly drawn) [EC357, 17α-(1,1-difluoro-2-propyn-1-yl)-17β-hydroxy-11β-[4-p-(t-butyl)phenyl]estra-4,9-dien-3-one], the melting point fell in the range of 127 to 129 °C.
By IC50 is commonly meant the concentration at which inhibition is half-maximal. Low values mean greater potency in that assay, high ones weaker potency in that assay. With `C#CC(F)(F)[C@]1(O)CCC2C3CCC4=CC(=O)CCC4=C3C(c3ccc(N(C)C)cc3)C[C@@]21C` (stereo partly drawn) [EC352, 17α-(1,1-difluoro-2-propyn-1-yl)-17β-hydroxy-11β-[4-p-(dimethylamino)phenyl]estra-4,9-dien-3-one], the IC50 with U87-MU (Glioma cells) is 50 nM; in series [6] it was greater than 10000 nM; in the series with U251 (Glioma), 40 nM; in series [1] (Homo sapiens, MCF7, LIF-overexpressing MCF-7) it was greater than 10000 nM; in the series with A549 (Lung cancer), 45 nM. The “Fold Change” value in [1] came out at 0.
For the compound `C#CC(F)(F)[C@]1(O)CCC2C3CCC4=CC(=O)CCC4=C3C(c3ccc(S(=O)(=O)C4CC4)cc3)C[C@@]21C` (stereo partly drawn) [EC361, 17α-(1,1-difluoro-2-propyn-1-yl)-17β-hydroxy-11β-[4-p-(cyclopropylsulfonyl)phenyl]estra-4,9-dien-3-one], the “Fold Change” value in series [1] amounted to 20.
Compound `C#CC(F)(F)[C@]1(O)CCC2C3CCC4=CC(=O)CCC4=C3C(c3ccc(-n4ccnc4)cc3)C[C@@]21C` (some centres unmarked) [EC351] returned a melting point of 175 to 178 °C.
Regarding `C#CC(F)(F)[C@]1(O)CCC2C3CCC4=CC(=O)CCC4=C3C(c3ccc(C(=C)C)cc3)C[C@@]21C` (stereo partly drawn) [EC358, 17α-(1,1-difluoro-2-propyn-1-yl)-17β-hydroxy-11β-[4-p-(1-methylethenyl)phenyl]estra-4,9-dien-3-one], the “Fold Change” value in series [1] was 2.
Regarding `C#CC(F)(F)[C@]1(O)CCC2C3CCC4=CC(=O)CCC4=C3C(c3ccc(OC)cc3)C[C@@]21C` (stereo partly drawn) [EC356, 17α-(1,1-difluoro-2-propyn-1-yl)-17β-hydroxy-11β-[4-p-(methoxy)phenyl]estra-4,9-dien-3-one], in [1], the “Fold Change” value is 2.
With `Nc1ccn([C@@H]2O[C@H](CO)[C@@H](O)C2(F)F)c(=O)n1` [Gemcitabine, reference compound], the “relative reduction in GFP fluorescence” value in series [7] is 98%.
`C#CC(F)(F)[C@]1(O)CCC2C3CCC4=CC(=O)CCC4=C3C(c3ccc(CCCCCCC)cc3)C[C@@]21C` (stereo partly drawn) [EC362, 17α-(1,1-difluoro-2-propyn-1-yl)-17β-hydroxy-11β-[4-p-(n-heptyl)phenyl]estra-4,9-dien-3-one]: the “Fold Change” value in series [1] is 2.
